# Where two headings read alike, the source gives them in different places.
# Assays:
# [1] = target: T1, human MMP-9 (gelatinase B) (Homo sapiens, UniProt P14780); experiment: Inhibition activity against human MMP-9 (gelatinase B), fluorescent peptide substrate; type: biochemical
# T1 construct: endogenous in cells; host or cells: HT1080 human fibrosarcoma cells (ATCC CCL-121), PMA-stimulated; enzyme purified from the culture supernatant
# Description: Human MMP-9 (gelatinase B) was purified by the following method from a culture supernatant of HT1080 cells (human fibrosarcoma).
# 2.5×10^6 HT1080 cells (ATCC CCL-121, purchased from Dainippon Seiyaku) were inoculated to a tissue culture dish (Code No. 3020-100, manufactured by Iwaki Glass Co., Ltd.) having a diameter of 10 cm and containing 10 ml of Dulbecco's Modified Eagle Medium (DME, No. D-5648, manufactured by Sigma Co.) containing 10% fetal bovine serum (FBS: REHATUIN™, Code No. 1020-90, manufactured by Intergen Co.) and cultured for 72 hours at 37° C. in an atmosphere comprising 5% of CO2 and 95% of air (Carbon Dioxide Incubator LNA-122D Model, manufactured by Tabai Co.). Then, the medium was changed to 10 ml of a DME culture medium containing no FBS, and phorbol 12-myristate 13-acetate (PMA, code No. 163-114851, manufactured by Wako Pure Chemical Industries, Ltd.) was added so that the final concentration became 10 ng/ml. Under the same conditions, the culturing was carried out for further 20 hours, whereupon the culture supernatant was collected and subjected to cool centrifugation at 4° C. for 5 minutes (cool centrifugal separator, manufactured by Hitachi) to remove cell fragments.
# The pH of a conditioned medium (50 ml) containing MMP-9, thus prepared, was adjusted to 8.0 with 0.2N NaOH. […] Namely, the above-mentioned conditioned medium was passed through DEAE-Sephacel (manufactured by Pharmacia, gel volume: about 35 ml) preliminarily equilibrated with 50 mM Tris-HCl, pH 8.0 (A buffer), and a non-adsorption fraction was collected. Then, it was added to Dye Matrix Gel Green A (manufactured by Amicon Co., gel volume: about 6 ml) preliminarily equilibrated with 50 mM Tris-HCl, pH 7.5/10 MM CaCl2/0.05% Brij 35/0.02% NaN3 (B buffer) and thoroughly washed with the same buffer, whereupon the adsorbed enzyme was eluted with a 1M NaCl-containing B buffer. About 7.5 ml of the eluted fraction was diluted twice with the B buffer and added to Gelatin-Sepharose 4B (manufactured by Pharmacia, gel volume: about 6 ml) preliminarily equilibrated with a 0.5 M NaCl-containing B buffer. It was thoroughly washed with a 0.5M NaCl-containing B buffer, and eluted with the B buffer containing 10% of dimethylsulfoxide (DMSO) and 0.5 M of NaCl. 5.5 ml of the eluted fraction was dialyzed against a 0.1 M NaCl-containing B buffer to obtain 5.2 ml of a purified enzyme solution. The purified MMP-9 standard product was confirmed to have a single band of 92 kDa by a protein staining by SDS electrophoresis, and further, it was confirmed to have an adequate gelatin decomposing activity by gelatinzymography (carried out in accordance with a method by Howard E. W. et al; Journal Biological Chemistry, Vol. 266, 13064-13069, 1991) and to have an adequate substrate decomposing activity by the after-mentioned measurement employing a fluorescent peptide substrate specific to MMP.
# The inhibition activity against human MMP-9 was measured by the following method in accordance with the method by C. G. Knight et al (FEBS Letters, Vol, 296, 263-266, 1992) employing a fluorescent peptide substrate (7-methoxycoumarin-4-yl)Acetyl-Pro-Leu-Gly-Leu-(3-[2,4-dinitrophenyl]—Ala—Arg-NH2, Code 3163-VC, manufactured by Peptide Institute, Inc.
# Further, as the case requires, commercially available human MMP-9 purified enzyme (No. YU-18003, manufactured by Kabushiki Kaisha Yagai Chuo Kenkyusho; used in a final concentration of from 0.0125 to 0.025 unit/ml, No. CC079, manufactured by Chemicon International, Inc.; used in a final concentration of 0.2 μg/ml) was used for the tests. […]
# [2] = intermediates, compounds of the formula (IV), 1st measurement, read-out: MMP-9 inhibition activities IC50, 1st
# [3] = intermediates, compounds of the formula (IV), 2nd measurement, read-out: MMP-9 inhibition activities IC50, 2nd
# [4] = intermediates, compounds of the formula (IV), average of 1st and 2nd (or single measurement), read-out: MMP-9 inhibition activities IC50, Average
# [5] = compounds of the formula (I), 1st measurement, read-out: MMP-9 inhibition activities IC50, 1st
# [6] = compounds of the formula (I), 2nd measurement, read-out: MMP-9 inhibition activities IC50, 2nd
# [7] = compounds of the formula (I), average of 1st and 2nd (or single measurement), read-out: MMP-9 inhibition activities IC50, Average
# T1 sequence (P14780 107-707 limits assumed): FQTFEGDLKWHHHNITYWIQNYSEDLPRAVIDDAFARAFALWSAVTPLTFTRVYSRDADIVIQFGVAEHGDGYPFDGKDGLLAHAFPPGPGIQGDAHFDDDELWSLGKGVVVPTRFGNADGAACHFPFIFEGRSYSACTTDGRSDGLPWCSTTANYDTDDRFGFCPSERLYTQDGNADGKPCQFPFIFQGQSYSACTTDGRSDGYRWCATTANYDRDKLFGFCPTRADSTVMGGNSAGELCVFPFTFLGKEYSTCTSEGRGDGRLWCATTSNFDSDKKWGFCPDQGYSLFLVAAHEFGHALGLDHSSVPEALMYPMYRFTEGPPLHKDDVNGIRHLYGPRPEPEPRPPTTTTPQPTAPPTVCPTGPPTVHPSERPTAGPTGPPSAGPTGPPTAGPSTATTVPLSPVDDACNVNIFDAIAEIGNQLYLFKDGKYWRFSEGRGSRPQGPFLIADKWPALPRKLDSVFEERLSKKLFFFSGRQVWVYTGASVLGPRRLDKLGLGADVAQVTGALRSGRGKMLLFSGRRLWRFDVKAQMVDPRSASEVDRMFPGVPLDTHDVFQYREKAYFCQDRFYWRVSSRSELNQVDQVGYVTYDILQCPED
Compound,melting point,"IC50 [1, 2] [µM]","IC50 [1, 3] [µM]","IC50 [1, 4] [µM]","IC50 [1, 5] [µM]","IC50 [1, 6] [µM]","IC50 [1, 7] [µM]"
CSC(=C[N+](=O)[O-])NC1CCCC1 [Intermediate 3],82 to 87.5 °C,21.3,37.3,29.3,,,
CSC(=C[N+](=O)[O-])Nc1ccc([N+](=O)[O-])cc1 [Intermediate 11],180 °C,17.6,15.9,16.8,,,
CSC(=C[N+](=O)[O-])Nc1ccc(O)cc1 [Intermediate 12],193 °C (dec.),25.3,24.5,24.9,,,
CSC(=C[N+](=O)[O-])Nc1ccc(F)cc1 [Intermediate 21],156 °C,31.6,54.4,43,,,
COc1ccccc1NC(=C[N+](=O)[O-])SC [Intermediate 25],128 to 130 °C,38.9,35.3,37.1,,,
COc1ccc(NC(=C[N+](=O)[O-])SC)cn1 [Intermediate 49],134 to 137 °C,29.5,29,29.3,,,
CSC(=C[N+](=O)[O-])Nc1ccc2c(c1)OCO2 [Intermediate 51],153 to 155 °C,31.6,26,28.8,,,
CSC(=C[N+](=O)[O-])Nc1ccc2c(c1)C(=O)CO2 [Intermediate 52],221 to 222 °C (dec.),61.5,50.4,56,,,
CSC(=C[N+](=O)[O-])Nc1c(C)nn(C)c1C [Intermediate 54],184 to 188 °C,38.7,33.9,36.3,,,
CSC(=C[N+](=O)[O-])NS(=O)(=O)c1ccc2ccccc2c1 [Intermediate 61],205 °C (dec.),8.2,,8.2,,,
CSC(=C[N+](=O)[O-])NS(=O)(=O)c1ccc(-c2ccccc2)cc1 [Intermediate 62],75 to 77 °C,4.5,,4.5,,,
CNC(=C[N+](=O)[O-])NNc1ccccc1[N+](=O)[O-] [compound 11],194 °C (dec.),,,,31.9,33.7,32.8
CNC(=C[N+](=O)[O-])NNc1ccc([N+](=O)[O-])cc1 [compound 13],186 °C (dec.),,,,20.1,16.1,18.1
CNC(=C[N+](=O)[O-])NNc1ccccc1C [compound 14],171 °C (dec.),,,,47.4,42.2,44.8
CNC(=C[N+](=O)[O-])NNc1ccc(OC)cc1 [compound 17],168 °C (dec.),,,,43.8,28.8,36.3
CNC(=C[N+](=O)[O-])NN=Cc1ccccc1 [compound 18],159 to 160 °C,,,,18.3,26.6,22.5
CNC(=C[N+](=O)[O-])NNc1ncc(C(F)(F)F)cc1Cl [compound 21],168 °C (dec.),,,,11.7,18.1,14.9
CNC(=C[N+](=O)[O-])NNC(O)C(F)(F)F (stereo not drawn) [compound 23],144 to 145 °C,,,,42.5,54.8,48.7
CNC(=C[N+](=O)[O-])NNc1cc(C(F)(F)F)cc(C)n1 [compound 27],161 to 162 °C,,,,26.6,24.5,25.6

# The next lines start with the values.
melting point,"IC50 [1, 2] [µM]","IC50 [1, 3] [µM]","IC50 [1, 4] [µM]","IC50 [1, 5] [µM]","IC50 [1, 6] [µM]","IC50 [1, 7] [µM]",Compound
118 to 121 °C,38.9,49.6,44.3,,,,COc1cccc(NC(=C[N+](=O)[O-])SC)c1 [Intermediate 20]
116 to 123 °C,33.9,25.3,29.6,,,,CCOC(=O)c1ccc(NC(=C[N+](=O)[O-])SC)cc1 [Intermediate 50]
214 to 216 °C,32.5,25.5,29,,,,CSC(=C[N+](=O)[O-])Nc1ccc2cn[nH]c2c1 [Intermediate 55]
178 °C (dec.),,,,36.7,30.1,33.4,CNC(=C[N+](=O)[O-])NNc1ccccc1Cl [compound 8]
156 °C (dec.),,,,17.9,17.4,17.7,CNC(=C[N+](=O)[O-])NNc1ccccn1 [compound 22]
136 °C,,,,21.9,30,26,CNC(=C[N+](=O)[O-])NN=C(C)C [compound 25]
159 °C (dec.),,,,31.9,31.5,31.7,CNC(=C[N+](=O)[O-])NN=C(C)OC [compound 26]
165 °C (dec.),,,,26.7,24,25.4,CNC(=C[N+](=O)[O-])NN=C(C)c1cccs1 [compound 32]
170 °C (dec.),,,,30.6,31.9,31.8,CNC(=C[N+](=O)[O-])NN=C(C)c1ccccn1 [compound 33]
181 °C (dec.),,,,30.2,26.9,28.6,CNC(=C[N+](=O)[O-])NN=C(C)c1cccnc1 [compound 34]
